Experimental data taken from ChEMBL document CHEMBL1201862, “PubChem BioAssay data set” (2004).
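Values below derive from 48-hour exposures of cells grown in 96-well plates, with endpoints linearly interpolated between the two concentrations bracketing the appropriate inhibition level. Here, GI50 denotes the concentration required for 50% inhibition of growth.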 Activity calls are given as the source filed them. Rule as the data show it: active = GI50 up to about 1.1 µM and inactive = higher.

How the values were obtained:
Test in all cases: inhibition of tumour cell growth, NCI panel, 48 h
[1] = test system: IGROV-1
[2] = test system: MDA-MB-435
[3] = test system: OVCAR-5
[4] = test system: UACC-257
[5] = test system: DU-145
[6] = test system: PC-3
[7] = test system: SK-MEL-28
[8] = test system: SK-MEL-5
[9] = test system: NCI-H522
[10] = test system: A498
[11] = test system: HCT-116
[12] = test system: M14
[13] = test system: K562
[14] = test system: HL-60
[15] = test system: SF-268
[16] = test system: NCI-H226
[17] = test system: OVCAR-3
[18] = test system: CCRF-CEM
[19] = test system: 786-0
[20] = test system: OVCAR-8

SMILES	GI50 [1]	GI50 [2]	GI50 [3]	GI50 [4]	GI50 [5]	GI50 [6]	GI50 [7]	GI50 [8]	GI50 [9]	GI50 [10]	GI50 [11]	GI50 [12]	GI50 [13]	GI50 [14]	GI50 [15]	GI50 [16]	GI50 [17]	GI50 [18]	GI50 [19]	GI50 [20]
O=C1NC2c3c(I)sc(I)c3C(=O)C2O1 (stereo not given)	2.93 µM (inactive)	4.45 µM (inactive)	14.3 µM (inactive)	4.97 µM (inactive)	14 µM (inactive)	6.9 µM (inactive)	7.41 µM (inactive)	2.46 µM (inactive)	1.56 µM (inactive)	14.3 µM (inactive)	2.58 µM (inactive)	2.07 µM (inactive)	4.65 µM (inactive)	1.09 µM (active)	6.76 µM (inactive)	5.55 µM (inactive)	3.31 µM (inactive)	1.56 µM (inactive)	7.13 µM (inactive)	2.84 µM (inactive)
Cc1ccc(S(=O)(=O)N2CCSCCSCCSCCSCC2)cc1	48.4 µM (inactive)	73.8 µM (inactive)	> 100 µM (inactive)	> 91.2 µM (inactive)	> 100 µM (inactive)	55 µM (inactive)	> 88.5 µM (inactive)	43.1 µM (inactive)	33.6 µM (inactive)	> 44.2 µM (inactive)	40 µM (inactive)	61.4 µM (inactive)	> 71 µM (inactive)	99.8 µM (inactive)	34.5 µM (inactive)	> 49.9 µM (inactive)	35.5 µM (inactive)	64.3 µM (inactive)	21.1 µM (inactive)	24.3 µM (inactive)
Cc1ccc2c(c1)S(=O)(=O)c1ccc3ccccc3c1N2	> 100 µM (inactive)	> 100 µM (inactive)	> 100 µM (inactive)	> 100 µM (inactive)	> 100 µM (inactive)	> 100 µM (inactive)	> 100 µM (inactive)	> 100 µM (inactive)	> 100 µM (inactive)	> 100 µM (inactive)	> 100 µM (inactive)	> 100 µM (inactive)	> 100 µM (inactive)	> 100 µM (inactive)	> 100 µM (inactive)	> 100 µM (inactive)	> 100 µM (inactive)	> 100 µM (inactive)	> 100 µM (inactive)	> 100 µM (inactive)
COc1cc2c(c(O)c1OC)C(=O)[C@@H]1CCC(=O)N1C2	> 100 µM (inactive)	> 100 µM (inactive)	> 100 µM (inactive)	> 100 µM (inactive)	> 100 µM (inactive)	> 100 µM (inactive)	> 100 µM (inactive)	> 100 µM (inactive)	> 100 µM (inactive)	> 100 µM (inactive)	> 100 µM (inactive)	> 100 µM (inactive)	> 100 µM (inactive)	> 100 µM (inactive)	> 100 µM (inactive)	> 100 µM (inactive)	> 100 µM (inactive)	> 100 µM (inactive)	> 100 µM (inactive)	> 100 µM (inactive)
COC1/C=C/C(C)C(OC)CC(O)/C=C/C(C)C(C(C)C(OC)C(C)CCC(=O)C(C)C(C/C=C/N(C)C=O)OC)OC(=O)/C=C/C=C(\C)CC(OC)CC2=CC(=O)O[C@@H](C(C)C(OC)C1)[C@H]2O (stereo not given in full)	0.0708 µM (active)	0.182 µM (active)	0.177 µM (active)	0.11 µM (active)	0.544 µM (active)	0.0873 µM (active)	0.0767 µM (active)	0.125 µM (active)	0.146 µM (active)	0.056 µM (active)	0.0188 µM (active)	0.056 µM (active)	17.1 µM (inactive)	0.064 µM (active)	0.153 µM (active)	0.122 µM (active)	0.049 µM (active)	0.621 µM (active)	0.0977 µM (active)	0.16 µM (active)
COc1cc(O)c2c(c1)OCC1(Cc3cc(OC)c(OC)cc31)C2=O (stereo not given)	> 100 µM (inactive)	29 µM (inactive)	> 100 µM (inactive)	43.1 µM (inactive)	> 100 µM (inactive)	> 100 µM (inactive)	> 100 µM (inactive)	2.37 µM (inactive)	84.9 µM (inactive)	> 100 µM (inactive)	86.1 µM (inactive)	> 100 µM (inactive)	36.9 µM (inactive)	> 100 µM (inactive)	> 100 µM (inactive)	46 µM (inactive)	34 µM (inactive)	> 100 µM (inactive)	> 100 µM (inactive)	> 100 µM (inactive)
Cc1cc(Cl)ccc1/N=N/C(=O)NNc1ccc(Cl)cc1C	6.62 µM (inactive)	20.7 µM (inactive)	15.8 µM (inactive)	17.1 µM (inactive)	10.7 µM (inactive)	10.4 µM (inactive)	16.1 µM (inactive)	13.9 µM (inactive)	20.3 µM (inactive)	9.06 µM (inactive)	13.4 µM (inactive)	16.9 µM (inactive)	22 µM (inactive)	20.3 µM (inactive)	16.4 µM (inactive)	16.4 µM (inactive)	17.2 µM (inactive)	21.1 µM (inactive)	16.3 µM (inactive)	13 µM (inactive)
CS(=O)(=O)Nc1ccc(NCc2c[nH]c3ccc4ncccc4c23)cc1	48.6 µM (inactive)	16.9 µM (inactive)	40.3 µM (inactive)	23.1 µM (inactive)	26.1 µM (inactive)	19 µM (inactive)	26.1 µM (inactive)	14.9 µM (inactive)	18.5 µM (inactive)	20.3 µM (inactive)	20.3 µM (inactive)	20.9 µM (inactive)	18.7 µM (inactive)	22.3 µM (inactive)	23.7 µM (inactive)	26.2 µM (inactive)	31.1 µM (inactive)	18.8 µM (inactive)	29.9 µM (inactive)	34 µM (inactive)
CC1(C)CO[P@@](=S)(c2ccccn2)O[C@@H]1c1ccccc1	> 100 µM (inactive)	> 100 µM (inactive)	> 100 µM (inactive)	> 100 µM (inactive)	> 100 µM (inactive)	> 100 µM (inactive)	> 100 µM (inactive)	95.1 µM (inactive)	70.8 µM (inactive)	> 100 µM (inactive)	93.3 µM (inactive)	> 100 µM (inactive)	57 µM (inactive)	> 100 µM (inactive)	> 100 µM (inactive)	76.2 µM (inactive)	18.7 µM (inactive)	64.4 µM (inactive)	> 100 µM (inactive)	> 100 µM (inactive)
CC1OC(OC2C(O[C@H]3CC[C@@H]4C(=CC[C@@H]5[C@@]4(C)C(=O)C[C@]4(C)[C@@H]([C@H](C)CC[C@@H](O)C(C)(C)O)CC[C@@]54C)C3(C)C)OC(CO)C(O)C2O)C(O)C(O)C1O (stereo not given in full)	75.5 µM (inactive)	> 100 µM (inactive)	> 100 µM (inactive)	> 100 µM (inactive)	> 100 µM (inactive)	> 100 µM (inactive)	> 100 µM (inactive)	> 100 µM (inactive)	> 100 µM (inactive)	> 100 µM (inactive)	> 100 µM (inactive)	> 100 µM (inactive)	49 µM (inactive)	> 100 µM (inactive)	> 100 µM (inactive)	> 100 µM (inactive)	> 100 µM (inactive)	79.3 µM (inactive)	> 100 µM (inactive)	> 100 µM (inactive)
COc1cc(CCCOC(=O)/C=C/c2ccc(O)c(O)c2)cc(O)c1O	80.2 µM (inactive)	28.6 µM (inactive)	> 100 µM (inactive)	> 100 µM (inactive)	> 100 µM (inactive)	32.4 µM (inactive)	58.3 µM (inactive)	31.2 µM (inactive)	15 µM (inactive)	> 100 µM (inactive)	17.7 µM (inactive)	> 100 µM (inactive)	33.2 µM (inactive)	25.5 µM (inactive)	25.2 µM (inactive)	> 100 µM (inactive)	42.1 µM (inactive)	30.8 µM (inactive)	49 µM (inactive)	70.8 µM (inactive)
COC(=O)C1=COC(C)C2C[n+]3ccc4c([nH]c5ccccc54)c3CC12 (stereo not given)	49.1 µM (inactive)	> 100 µM (inactive)	> 100 µM (inactive)	> 100 µM (inactive)	> 100 µM (inactive)	> 100 µM (inactive)	> 100 µM (inactive)	> 100 µM (inactive)	54.5 µM (inactive)	> 100 µM (inactive)	> 100 µM (inactive)	> 100 µM (inactive)	> 100 µM (inactive)	> 100 µM (inactive)	> 100 µM (inactive)	44.9 µM (inactive)	> 100 µM (inactive)	> 100 µM (inactive)	> 100 µM (inactive)	> 100 µM (inactive)
COc1ccc(CCN2CCN(CCc3ccc(OC)cc3)CC2)cc1	> 100 µM (inactive)	> 100 µM (inactive)	> 100 µM (inactive)	> 100 µM (inactive)	> 100 µM (inactive)	> 100 µM (inactive)	> 100 µM (inactive)	> 100 µM (inactive)	> 100 µM (inactive)	> 100 µM (inactive)	> 100 µM (inactive)	> 100 µM (inactive)	> 100 µM (inactive)	> 100 µM (inactive)	> 100 µM (inactive)	> 100 µM (inactive)	> 100 µM (inactive)	> 100 µM (inactive)	> 100 µM (inactive)	> 100 µM (inactive)
N#C[BH2-][n+]1ccc(C(=O)NNCc2ccc(F)cc2)cc1	> 100 µM (inactive)	> 100 µM (inactive)	> 100 µM (inactive)	> 100 µM (inactive)	> 100 µM (inactive)	> 100 µM (inactive)	> 100 µM (inactive)	> 100 µM (inactive)	> 100 µM (inactive)	> 100 µM (inactive)	> 100 µM (inactive)	> 100 µM (inactive)	> 100 µM (inactive)	> 100 µM (inactive)	> 100 µM (inactive)	> 100 µM (inactive)	> 100 µM (inactive)	> 100 µM (inactive)	> 100 µM (inactive)	> 100 µM (inactive)
